In patent US20170275275A1, “BENZENESULFONAMIDES USEFUL AS SODIUM CHANNEL INHIBITORS” (PFIZER INC., priority 2014, published 2017):
Counter-ions that a name gives are not always drawn.

Columns and labels:
[1] = Aqueous solubility, shake-flask method; format: physicochemical; conditions: aqueous buffer, thermodynamic from solid, pH 7.5, shaken 18 hours at room temperature
Procedure: Aqueous solubility data were generated via a “shake-flask” method where an excess of compound was added to a buffer (typically phosphate buffered saline at pH 7.4) and shaken for a period of 18 hours at room temperature. After this time any excess solid was removed by double centrifugation to obtain a saturated aqueous solution. The amount of compound solubilised was quantified by HPLC-UV or LC-MS against a standard calibration curve.
The solubility data generated are set out below. Where a greater than figure is quoted, all available compound was solubilised and saturation was not achieved in the conditions employed.

[2] = target: T1, Nav1.7 (or SCN9A) channel (Homo sapiens, UniProt Q15858); test: Nav1.7 (hSCN9A) channel block, PatchXpress (PX) whole-cell electrophysiology in stably transfected HEK cells; format: cell-based; conditions: estimated IC50 from single point electrophysiology data; PatchXpress platform; HEK cells expressing hSCN9A; clamped at V1/2 of inactivation; read-out: Nav1.7 EIC50
T1 construct: expressed in transfected cells
T1 sequence (Q15858 whole entry): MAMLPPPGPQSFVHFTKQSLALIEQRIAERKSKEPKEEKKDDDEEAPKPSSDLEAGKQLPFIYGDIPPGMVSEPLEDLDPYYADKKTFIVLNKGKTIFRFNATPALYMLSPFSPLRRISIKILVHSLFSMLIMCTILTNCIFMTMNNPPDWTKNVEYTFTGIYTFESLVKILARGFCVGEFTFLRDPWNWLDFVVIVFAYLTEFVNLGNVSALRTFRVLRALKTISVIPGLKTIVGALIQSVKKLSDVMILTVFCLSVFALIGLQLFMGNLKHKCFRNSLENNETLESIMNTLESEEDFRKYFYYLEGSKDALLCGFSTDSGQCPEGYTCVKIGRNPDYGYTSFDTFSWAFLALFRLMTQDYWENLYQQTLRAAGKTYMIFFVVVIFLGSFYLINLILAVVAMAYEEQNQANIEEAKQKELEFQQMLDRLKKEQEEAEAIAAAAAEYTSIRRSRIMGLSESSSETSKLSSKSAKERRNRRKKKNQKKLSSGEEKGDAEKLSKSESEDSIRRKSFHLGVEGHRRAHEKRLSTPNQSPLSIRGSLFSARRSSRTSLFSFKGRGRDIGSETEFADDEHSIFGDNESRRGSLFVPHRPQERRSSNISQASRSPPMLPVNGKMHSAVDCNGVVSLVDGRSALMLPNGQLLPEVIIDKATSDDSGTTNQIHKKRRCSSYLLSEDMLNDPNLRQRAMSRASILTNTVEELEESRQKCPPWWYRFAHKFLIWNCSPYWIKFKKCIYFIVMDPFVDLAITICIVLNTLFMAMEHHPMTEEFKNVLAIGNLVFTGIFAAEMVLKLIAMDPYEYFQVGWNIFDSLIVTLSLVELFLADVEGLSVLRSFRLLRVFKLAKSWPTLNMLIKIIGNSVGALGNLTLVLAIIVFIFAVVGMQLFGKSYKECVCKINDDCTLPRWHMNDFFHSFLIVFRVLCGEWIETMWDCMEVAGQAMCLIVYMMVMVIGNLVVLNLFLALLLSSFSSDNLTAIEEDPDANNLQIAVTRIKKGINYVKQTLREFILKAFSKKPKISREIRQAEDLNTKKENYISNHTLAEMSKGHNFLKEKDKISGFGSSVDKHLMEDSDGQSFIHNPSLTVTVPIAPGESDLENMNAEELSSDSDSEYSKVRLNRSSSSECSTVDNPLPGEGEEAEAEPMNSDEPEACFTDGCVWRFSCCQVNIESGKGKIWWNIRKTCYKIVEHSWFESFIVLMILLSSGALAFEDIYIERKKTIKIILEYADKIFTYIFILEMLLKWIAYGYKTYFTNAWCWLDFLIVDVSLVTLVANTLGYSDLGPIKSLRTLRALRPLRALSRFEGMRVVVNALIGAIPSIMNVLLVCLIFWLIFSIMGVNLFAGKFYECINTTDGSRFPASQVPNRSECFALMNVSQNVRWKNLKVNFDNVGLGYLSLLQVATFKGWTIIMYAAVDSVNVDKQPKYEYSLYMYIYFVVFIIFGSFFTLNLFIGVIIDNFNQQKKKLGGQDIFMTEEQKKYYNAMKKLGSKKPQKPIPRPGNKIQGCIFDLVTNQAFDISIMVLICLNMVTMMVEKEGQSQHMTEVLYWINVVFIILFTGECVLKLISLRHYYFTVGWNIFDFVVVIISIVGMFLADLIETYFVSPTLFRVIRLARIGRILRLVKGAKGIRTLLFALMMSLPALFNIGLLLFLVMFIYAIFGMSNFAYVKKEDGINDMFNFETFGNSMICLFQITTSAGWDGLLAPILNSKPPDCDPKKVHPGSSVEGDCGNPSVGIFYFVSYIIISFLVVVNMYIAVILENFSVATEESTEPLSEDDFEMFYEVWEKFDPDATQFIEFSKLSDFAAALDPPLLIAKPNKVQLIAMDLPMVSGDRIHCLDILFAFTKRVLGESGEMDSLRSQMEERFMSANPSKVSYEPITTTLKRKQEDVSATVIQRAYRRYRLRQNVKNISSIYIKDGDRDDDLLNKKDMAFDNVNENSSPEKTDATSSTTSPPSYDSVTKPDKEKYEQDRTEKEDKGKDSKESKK
Procedure: The ability of the compounds of formula (I) to block the Nav1.7 (or SCN9A) channel was measured using the assay described below.
Human Embryonic Kidney (HEK) cells were transfected with an hSCN9A construct using lipofectamine reagent (Invitrogen), using standard techniques. Cells stably expressing the hSCN9A constructs were identified by their resistance to G-418 (400 μg/ml). Clones were screened for expression using the whole-cell voltage-clamp technique.
HEK cells stably transfected with hSCN9A were maintained in DMEM medium supplemented with 10% heat-inactivated fetal bovine serum and 400 μg/ml G-418 in an incubator at 37° C. with a humidified atmosphere of 10% CO2. For HTS, cells were harvested from flasks by trypsinization and replated in an appropriate multi-well plate (typically 96 or 384 wells/plate) such that confluence would be achieved within 24 hours of plating. Cells were typically used for electrophysiological experiments within 24 to 72 hours after plating.
For conventional whole-cell voltage clamp experiments cells were removed from the culture flask by brief trypsinization and re-plated at low density onto glass cover slips. Cover slips containing HEK cells expressing hSCN9A were placed in a bath on the stage of an inverted microscope and perfused (approximately 1 ml/minutes) with extracellular solution of the following composition: 138 mM NaCl, 2 mM CaCl2, 5.4 mM KCl, 1 mM MgCl2, 10 mM glucose, and 10 mM HEPES, pH 7.4, with NaOH. […] The osmolarity of the extracellular and intracellular solutions was 300 mOsm/kg and 295 mOsm/kg, respectively. All recordings were made at room temperature (22-24° C.) using AXOPATCH 200B amplifiers and PCLAMP software (Axon Instruments, Burlingame, Calif.). hSCN9A currents in HEK cells were measured using the whole-cell configuration of the patch-clamp technique (Hamill et al., 1981). Uncompensated series resistance was typically 2 to 5 mega ohms and >85% series resistance compensation was routinely achieved. […] Current records were acquired at 20 to 50 KHz and filtered at 5 to 10 KHz.
HEK cells stably transfected with hSCN9A were viewed under Hoffman contrast optics and placed in front of an array of flow pipes emitting either control or compound-containing extracellular solutions.
The voltage-dependence of inactivation was determined by applying a series of depolarizing prepulses (8 sec long in 10 mV increments) from a negative holding potential. The voltage was then immediately stepped to 0 mV to assess the magnitude of the sodium current. Currents elicited at 0 mV were plotted as a function of prepulse potential to allow estimation of the voltage at which 50% of the channels were inactivated (midpoint of inactivation or V1/2). Compounds were tested for their ability to inhibit hSCN9A sodium channels by activating the channel with a 20 msec voltage step […] to 0 mV following an 8 second conditioning prepulse to the empirically determined V1/2. Compound effect (% inhibition) was determined by difference in current amplitude before and after application of test compounds. For ease of comparison, “estimated IC-50” (EIC50) values were calculated from single point electrophysiology data by the following equation, (tested concentration, nM)×(100-% inhibition/% inhibition). Inhibition values <20% and >80% were excluded from the calculation.
Electrophysiological assays were conducted with PatchXpress 7000 hardware and associated software (Molecular Devices Corp). All assay buffers and solutions were identical to those used in conventional whole-cell voltage clamp experiments described above. hSCN9A cells were grown as above to 50%-80% confluency and harvested by trypsinization. Trypsinized cells were washed and resuspended in extracellular buffer at a concentration of 1×10^6 cells/ml. The onboard liquid handling facility of the PatchXpress was used for dispensing cells and application of test compounds.

solubility at 18 h [1]: 56 µg/mL
IC50 [2]: 7.9 nM
SMILES: COCCOCCOCCOCCO[C@@H]1CCN(Cc2cc(-c3cc(-c4cccc(C(F)(F)F)c4)ccc3Oc3ccc(S(=O)(=O)Nc4ncns4)cc3C#N)ccn2)C1 [Example 21, (R)-4-((3-(2-((3-((2,5,8,11-tetraoxatridecan-13-yl)oxy)pyrrolidin-1-yl)methyl)pyridin-4-yl)-3′-(trifluoromethyl)-[1,1′-biphenyl]-4-yl)oxy)-3-cyano-N-(1,2,4-thiadiazol-5-yl)benzenesulfonamide trifluoroacetate salt]
